# Legend:
# Format in all cases: biochemical
# [1] = target: T1, CAMK2D (CaMKII delta) (Homo sapiens, UniProt Q13557); assay: Z'-LYTE kinase selectivity assay CAMK2D
# T1 construct: purchased Life Technologies PV 3373
# Source text: (§1) In order to compare the kinase selectivity of compounds (I) according to the invention with known prior art compounds the commercially provided SelectScreen® Kinase Profiling Service (Z′-LYTE®) was used (Life Technologies GmbH, Darmstadt, Germany) to investigate the ability of the compounds to inhibit a number of different, representatively selected human kinases. Further details regarding this service are available on the Life Technologies website at
# (§2) The Z′-LYTE® biochemical assay employs a fluorescence-based, coupled-enzyme format and is based on the differential sensitivity of phosphorylated and non-phosphorylated peptides to proteolytic cleavage. The peptide substrate is labeled with two fluorophores—one at each end—that make up a FRET pair.
# (§3) In the primary reaction, the kinase transfers the gamma-phosphate of ATP to a single tyrosine, serine or threonine residue in a synthetic FRET-peptide. In the secondary reaction, a site-specific protease recognizes and cleaves non-phosphorylated FRET-peptides. Phosphorylation of FRET-peptides suppresses cleavage by the Development Reagent. Cleavage disrupts FRET between the donor (i.e., coumarin) and acceptor (i.e., fluorescein) fluorophores on the FRET-peptide, whereas uncleaved, phosphorylated FRET-peptides maintain FRET. A ratiometric method, which calculates the ratio (the Emission Ratio) of donor emission to acceptor emission after excitation of the donor fluorophore at 400 nm, is used to quantitate reaction progress, as shown in the equation below.
# (§4) The Test Compounds are screened at 1 μM.
# The 2×CAMK2D (CaMKII delta) (# PV 3373)/Ser/Thr 04 (Z′-LYTE® Kinase Assay Kit—Ser/Thr 4 Peptide, # PV 3177) mixture is prepared in 50 mM HEPES pH 7.5, 0.01% BRIJ-35, 10 mM MgCl2, 1 mM EGTA, 4 mM CaCl2), 800 U/mL Calmodulin, 0.02% NaN3. The final 10 μL Kinase Reaction consists of 0.08-0.74 ng CAMK2D (CaMKII delta) and 2 μM Ser/Thr 04 in 50 mM HEPES pH 7.5, 0.01% BRIJ-35, 10 mM MgCl2, 1 mM EGTA, 2 mM CaCl2), 400 U/mL Calmodulin, 0.01% NaN3. After the 1 hour Kinase Reaction incubation, 5 μL of a 1:1024 dilution of Development Reagent A is added.
# [2] = target: T2, SRPK2 (Homo sapiens, UniProt P78362); assay: Z'-LYTE kinase selectivity assay SRPK2
# T2 construct: purchased Life Technologies PV 3829
# Source text: as §1, §2, §3, §4
# The 2×SRPK2 (# PV 3829)/Ser/Thr 07 (Z′-LYTE® Kinase Assay Kit—Ser/Thr 7 Peptide, # PV 3180) mixture is prepared in 50 mM HEPES pH 7.5, 0.01% BRIJ-35, 10 mM MgCl2, 1 mM EGTA. The final 10 μL Kinase Reaction consists of 3.76-52 ng SRPK2 and 2 μM Ser/Thr 07 in 50 mM HEPES pH 7.5, 0.01% BRIJ-35, 10 mM MgCl2, 1 mM EGTA. After the 1 hour Kinase Reaction incubation, 5 μL of a 1:65000 dilution of Development Reagent A is added.
# [3] = target: T3, RAF1 (cRAF) Y340D Y341D (Homo sapiens, UniProt P04049, Y340D/Y341D); assay: Z'-LYTE kinase selectivity assay RAF1
# T3 construct: purchased Life Technologies PV 4046
# Source text: as §1, §2, §3, §4
# After the 1 hour Kinase Reaction incubation, 5 μL of a 1:1024 dilution of Development Reagent A is added.
# [4] = target: T4, PAK4 (Homo sapiens, UniProt O96013); assay: Z'-LYTE kinase selectivity assay PAK4
# T4 construct: purchased Life Technologies PV 4212
# Source text: as §1, §2, §3, §4
# The 2×PAK4 (# PV 4212)/Ser/Thr 20 (Z′-LYTE® Kinase Assay Kit—Ser/Thr 20 Peptide, # PV 4532) mixture is prepared in 50 mM HEPES pH 7.5, 0.01% BRIJ-35, 10 mM MgCl2, 1 mM EGTA. The final 10 μL Kinase Reaction consists of 0.1-0.75 ng PAK4 and 2 μM Ser/Thr 20 in 50 mM HEPES pH 7.5, 0.01% BRIJ-35, 10 mM MgCl2, 1 mM EGTA. After the 1 hour Kinase Reaction incubation, 5 μL of a 1:512 dilution of Development Reagent A is added.
# [5] = target: T5, FGFR1 (Homo sapiens, UniProt P11362); assay: Z'-LYTE kinase selectivity assay FGFR1
# T5 construct: purchased Life Technologies PV 3146
# Source text: as §1, §2, §3, §4
# The 2×FGFR1 (# PV 3146)/Tyr 04 (Z′-LYTE® Kinase Assay Kit—Tyrosine 4 Peptide, # PV 3193) mixture is prepared in 50 mM HEPES pH 7.5, 0.01% BRIJ-35, 10 mM MgCl2, 4 mM MnCl2, 1 mM EGTA, 2 mM DTT. The final 10 μL Kinase Reaction consists of 0.44-2.45 ng FGFR1 and 2 μM Tyr 04 in 50 mM HEPES pH 7.5, 0.01% BRIJ-35, 10 mM MgCl2, 2 mM MnCl2, 1 mM EGTA, 1 mM DTT. After the 1 hour Kinase Reaction incubation, 5 μL of a 1:64 dilution of Development Reagent B is added.
# [6] = target: T6, AKT2 (PKB beta) (Homo sapiens, UniProt P31751); assay: Z'-LYTE kinase selectivity assay AKT2
# T6 construct: purchased Life Technologies PV3975
# Source text: as §1, §2, §3, §4
# The 2×AKT2 (PKB beta) (# PV3975)/Ser/Thr 06 (Z′-LYTE® Kinase Assay Kit—Ser/Thr 6 Peptide, # PV 3179) mixture is prepared in 50 mM HEPES pH 7.5, 0.01% BRIJ-35, 10 mM MgCl2, 1 mM EGTA. The final 10 μL Kinase Reaction consists of 0.78-40 ng AKT2 (PKB beta) and 2 μM Ser/Thr 06 in 50 mM HEPES pH 7.5, 0.01% BRIJ-35, 10 mM MgCl2, 1 mM EGTA. After the 1 hour Kinase Reaction incubation, 5 μL of a 1:4096 dilution of Development Reagent A is added.
# T4 sequence (O96013 whole entry): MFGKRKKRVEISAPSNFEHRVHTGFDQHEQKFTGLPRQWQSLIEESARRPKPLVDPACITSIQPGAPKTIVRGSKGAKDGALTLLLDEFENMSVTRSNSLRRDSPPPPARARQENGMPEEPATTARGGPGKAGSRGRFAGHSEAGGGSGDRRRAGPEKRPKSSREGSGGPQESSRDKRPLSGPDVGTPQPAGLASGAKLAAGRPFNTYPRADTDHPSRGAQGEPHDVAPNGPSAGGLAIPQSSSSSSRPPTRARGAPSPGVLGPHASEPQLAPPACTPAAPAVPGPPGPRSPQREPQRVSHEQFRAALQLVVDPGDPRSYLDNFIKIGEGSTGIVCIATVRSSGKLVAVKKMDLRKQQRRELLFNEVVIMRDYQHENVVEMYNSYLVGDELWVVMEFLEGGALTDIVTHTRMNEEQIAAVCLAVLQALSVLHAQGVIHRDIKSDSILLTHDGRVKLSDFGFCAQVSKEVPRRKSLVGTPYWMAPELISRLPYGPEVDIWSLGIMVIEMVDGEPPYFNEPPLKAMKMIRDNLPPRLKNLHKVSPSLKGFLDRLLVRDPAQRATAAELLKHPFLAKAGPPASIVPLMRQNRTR
# T6 sequence (P31751 whole entry): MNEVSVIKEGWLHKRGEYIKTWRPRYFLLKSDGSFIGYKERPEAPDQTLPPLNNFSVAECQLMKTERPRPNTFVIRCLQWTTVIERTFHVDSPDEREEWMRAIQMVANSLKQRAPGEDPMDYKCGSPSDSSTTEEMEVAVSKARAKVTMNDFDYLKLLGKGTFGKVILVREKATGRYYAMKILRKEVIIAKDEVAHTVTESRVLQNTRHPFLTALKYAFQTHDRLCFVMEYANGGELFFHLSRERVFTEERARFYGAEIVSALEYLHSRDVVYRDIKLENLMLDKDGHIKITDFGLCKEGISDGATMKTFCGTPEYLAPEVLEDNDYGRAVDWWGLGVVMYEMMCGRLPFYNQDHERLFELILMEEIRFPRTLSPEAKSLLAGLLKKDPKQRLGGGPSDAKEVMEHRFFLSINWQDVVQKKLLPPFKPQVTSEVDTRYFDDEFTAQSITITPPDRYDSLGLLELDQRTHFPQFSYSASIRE
# T2 sequence (P78362 whole entry): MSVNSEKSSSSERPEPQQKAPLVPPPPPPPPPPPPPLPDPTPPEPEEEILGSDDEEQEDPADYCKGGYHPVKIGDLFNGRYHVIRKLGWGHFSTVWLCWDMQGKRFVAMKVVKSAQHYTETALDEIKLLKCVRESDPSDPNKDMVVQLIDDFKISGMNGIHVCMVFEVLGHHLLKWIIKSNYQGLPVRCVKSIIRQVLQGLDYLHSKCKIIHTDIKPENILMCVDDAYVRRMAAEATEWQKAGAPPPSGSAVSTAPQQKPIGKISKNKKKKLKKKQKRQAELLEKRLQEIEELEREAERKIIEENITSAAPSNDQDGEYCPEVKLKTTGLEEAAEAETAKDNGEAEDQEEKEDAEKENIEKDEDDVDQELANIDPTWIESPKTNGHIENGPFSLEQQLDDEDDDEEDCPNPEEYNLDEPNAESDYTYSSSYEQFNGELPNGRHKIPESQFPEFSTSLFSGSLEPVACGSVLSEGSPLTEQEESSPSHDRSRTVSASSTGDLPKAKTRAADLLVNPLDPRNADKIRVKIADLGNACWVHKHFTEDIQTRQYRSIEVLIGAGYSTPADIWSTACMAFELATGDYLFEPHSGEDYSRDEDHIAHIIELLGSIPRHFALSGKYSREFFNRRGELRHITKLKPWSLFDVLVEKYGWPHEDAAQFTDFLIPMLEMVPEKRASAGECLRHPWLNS
# T5 sequence (P11362 22-822): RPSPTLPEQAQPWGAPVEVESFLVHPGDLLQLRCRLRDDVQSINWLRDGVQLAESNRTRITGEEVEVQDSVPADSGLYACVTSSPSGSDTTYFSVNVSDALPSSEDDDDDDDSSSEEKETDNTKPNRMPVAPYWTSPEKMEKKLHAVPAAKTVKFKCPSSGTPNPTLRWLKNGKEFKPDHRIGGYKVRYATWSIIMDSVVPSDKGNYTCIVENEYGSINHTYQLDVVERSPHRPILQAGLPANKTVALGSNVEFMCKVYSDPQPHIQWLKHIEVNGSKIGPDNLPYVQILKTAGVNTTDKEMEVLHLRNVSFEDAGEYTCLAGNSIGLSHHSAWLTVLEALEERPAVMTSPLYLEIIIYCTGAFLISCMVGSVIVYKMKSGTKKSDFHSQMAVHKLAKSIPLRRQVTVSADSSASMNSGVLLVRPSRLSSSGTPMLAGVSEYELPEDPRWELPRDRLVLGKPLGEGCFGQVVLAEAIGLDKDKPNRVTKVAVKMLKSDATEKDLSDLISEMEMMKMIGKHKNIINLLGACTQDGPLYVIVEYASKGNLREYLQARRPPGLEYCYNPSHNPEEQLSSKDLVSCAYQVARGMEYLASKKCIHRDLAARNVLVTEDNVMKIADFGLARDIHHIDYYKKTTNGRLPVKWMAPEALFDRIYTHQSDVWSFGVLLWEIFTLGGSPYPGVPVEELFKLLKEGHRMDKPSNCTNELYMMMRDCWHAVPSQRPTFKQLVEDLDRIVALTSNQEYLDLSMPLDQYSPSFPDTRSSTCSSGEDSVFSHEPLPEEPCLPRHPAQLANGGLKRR
# T3 sequence (P04049 306-648 Y340D/Y341D limits assumed): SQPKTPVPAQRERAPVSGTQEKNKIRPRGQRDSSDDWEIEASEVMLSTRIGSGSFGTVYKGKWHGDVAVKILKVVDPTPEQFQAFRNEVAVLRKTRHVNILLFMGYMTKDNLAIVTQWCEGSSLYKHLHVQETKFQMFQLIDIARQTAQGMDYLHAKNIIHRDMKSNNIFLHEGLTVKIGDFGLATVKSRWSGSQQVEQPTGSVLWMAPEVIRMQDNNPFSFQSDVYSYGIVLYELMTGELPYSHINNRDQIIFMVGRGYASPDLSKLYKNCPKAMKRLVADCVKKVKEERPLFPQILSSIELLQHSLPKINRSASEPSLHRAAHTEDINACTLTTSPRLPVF
inhibition at 1 µM [1] [%],inhibition at 1 µM [2] [%],inhibition at 1 µM [3] [%],inhibition at 1 µM [4] [%],inhibition at 1 µM [5] [%],inhibition at 1 µM [6] [%],Compound
64,58,36,19,34,7,CC(O)CN1CCN(CCn2ccc(Nc3ncc4c(n3)-c3c(nn(C)c3-c3ccccc3)C[C@H]4C)n2)CC1 (stereo partly drawn) [Compound I-7]
38,38,14,27,28,3,COCCN1CCN(CCn2ccc(Nc3ncc4c(n3)-c3c(nn(C)c3-c3ccccc3)C[C@H]4C)n2)CC1 [Compound I-11]
58,49,31,39,34,7,C[C@@H]1Cc2nn(C)c(-c3ccccc3)c2-c2nc(Nc3ccn(CCN4CCN(CC(C)(C)O)CC4)n3)ncc21 [Compound I-3]
53,58,16,14,30,3,C[C@@H]1Cc2nn(C)c(-c3ccccc3)c2-c2nc(Nc3ccn(CCN4CCN(C)CC4)n3)ncc21 [Compound I-1]
40,48,25,21,29,4,C[C@@H]1Cc2nn(C)c(-c3ccccc3)c2-c2nc(Nc3ccn(CCN4CCN(CC(=O)OC5CCOCC5)CC4)n3)ncc21 [Compound I-8]
69,49,32,32,32,2,C[C@@H]1Cc2nn(C)c(-c3ccccc3)c2-c2nc(Nc3ccn(CCN4CCN(CC5CCCO5)CC4)n3)ncc21 (stereo partly drawn) [Compound I-9]
47,79,40,24,40,1,C[C@@H]1Cc2nn(C)c(-c3ccccc3)c2-c2nc(Nc3ccn(CCN4CCOCC4)n3)ncc21 [Compound I-2]

# Source: patent US10414769B2, “5,8-dimethyl-9-phenyl-5,8-dihydro-6H-pyrazolo[3,4-h]quinazolin-2-yl)-(1H-pyrazol-3-yl)-amines as IGF-1R/IR inhibitors” (Boehringer Ingelheim International GmbH, priority 2015, dated 2019)
